Literature values, collected in patent US11017689B2, “Very low nicotine cigarette blended with very low THC cannabis” (priority 2018, dated 2021).

Experiments:
[1] = administered orally to rats
[2] = system: nicotinic acetylcholine receptors (nAChRs)
[3] = system: nicotine self-administration; conditions: rats
[4] = nicotine in tobacco smoke, inhaled

Structure (SMILES): C1=CCC(c2cccnc2)NC1 (centres unmarked) [anatabine]
- elimination half-life relative to that of nicotine [1]: 2 to 2.5 fold
- affinity for nicotinic acetylcholine receptors (nAChRs) [2]: affinity
- reduction of nicotine self-administration ([3]; pretreatment with 2.0 mg/kg anatabine): nearly half

Structure (SMILES): CN1CCCC1c1cccnc1 (centres unmarked) [nicotine]
- time from inhaling the smoke until nicotine reaches the brain [4]: approximately ten

Structure (SMILES): c1cncc([C@@H]2CCCCN2)c1 [anabasine]
- affinity for nicotinic acetylcholine receptors (nAChRs) [2]: affinity
- dose-effect function on nicotine self-administration [3]: biphasic
- reduction of nicotine infusions per session ([3]; 2.0 mg/kg of anabasine): over 50%
- increase in nicotine self-administration ([3]; pretreatment with 0.02 mg/kg anabasine): 25%
